Reference: patent US20140213779A1, “RIBOSWITCHES” (THE UNIVERSITY OF MANCHESTER, priority 2011, published 2014)
Where two headings read alike, the source gives them in different places.

Legend:
[1] = target: M6C″ riboswitch aptamer; test: Isothermal titration calorimetry with M6C″ aptamer; format: binding; details: ITC, M6C″ aptamer domain
Text: (§1) Re-engineering the adenine responsive add A-riboswitch (addA) from Vibrio vulnificus (FIGS. 27A & B) [Dixon et al Proc Natl Acad Sci USA 2010, 107, 2830].

[2] = system: AddA riboswitch; test: addA-eGFP construct, GFP expression; format: cell-based, E. coli
Text: In the control constructs GFP expression is controlled directly by a lac promoter/operator alone. In contrast, in the gene constructs of the invention GFP expression is controlled by both a lac promoter/operator, and a riboswitch. In this arrangement the lac promoter provides transcriptional control of expression, and the riboswitch provides translational control. […] In this example, the first generation riboswitch comprises AddA (the ligand for which is adenine), and the second generation riboswitch comprises M6″ (the ligand for which is A43).
GFP induction factors (left axis indicated by the green bars) and absolute normalized GFP fluorescence signal (right axis) in the absence of inducer (open shape) and in the presence of inducer (closed shape).

[3] = system: M6 riboswitch; test: Dual promoter construct, DsRed expression by fluorescence; format: cell-based, Escherichia coli; details: for maximum normalized red fluorescence: Am 0→250 μM
Text: (§2) Here we show how two mutually orthogonal riboswitches can be independently controlled by varying concentrations of two distinct synthetic inducers, allowing dynamic expression landscapes to be accessed and optimal co-expression stoichiometries to be established. In the first instance a dual promoter system was constructed, in the pBKS vector with the orthogonal M6 riboswitch selected previously (Dixon et al Proc Natl Acad Sci USA 2010, 107, 2830] or Dixon et al Angew. Chem. 2012, 51, 3620-3624. controlling translation of the red fluorescent protein DsRed [Bevis, Nat. Biotech. 20:83 (2002)] in response to the ligand ammeline (Am). The bacteriophage lambda tR1 transcription terminator [Graham. NAR, Vol. 32:3093 (2004] was inserted downstream of DsRed gene, followed by a second lac promoter and the 2-aminopurine (2AP)-responsive parental add A-riboswitch [Dixon et al Proc Natl Acad Sci USA 2010, 107, 2830 & Mandal, Nat Struct Mol Biol 11: 29 (2004)] controlling translation of the green fluorescent protein eGFP (FIG. 34A). Escherichia coli was transformed with this dual promoter construct and expression of DsRed and eGFP genes, was then determined by fluorescence as function of inducer concentrations.
(§3) To explore the capacity of the dual promoter system for controlling the differential expression of DsRed and eGFP, multi-dosage matrix expression analysis was performed where induction factors (IF), the ratio of the maximum ligand-induced protein expression over the basal protein expression level, are determined for a full range of inducer concentrations (FIGS. 34A & B).
(§4) A number of reasons could possibly account for this. Firstly, ribosomal read-through could result in a more efficient initiation of translation at the eGFP RBS. Secondly, riboswitches that control gene expression through changing the accessibility of the RBS (like addA), may also rely on Rho-dependent termination of transcription [Roth, Annu. Rev. Biochem. 78:305 (2009) & Peters Proc. Natl. Acad. Sci. USA 106:15406 (2009)]. In the case of the operon, when both riboswitches are activated by Am and 2AP, ribosomes will be recruited at both RBSs and will occupy the full length of the transcript, blocking Rho binding [Epshtein, Nature 463:245 (2010)]. Consequently the levels of full-length mRNA transcripts in the cell will be higher, than if either or both ligands are absent. Finally protection of the full-length transcript from nuclease degradation by actively translating ribosomes [Deana, Genes Dev. […] Titration of the M6 selective inducer Am (0→250 μM) against the dual promoter in either the absence or presence 2AP (0 or 250 μM) gives dose-dependent protein expression curves for DsRed that are very similar, with maximum normalized red fluorescence (fu/OD620) of 1.1×10^5 and 1.0×10^5 respectively (FIG. 36A). […]

[4] = system: M6 riboswitch; test: Operon construct, DsRed expression by fluorescence; format: cell-based, Escherichia coli
Text: In a second series of experiments, a synthetic operon was designed with one promoter driving transcription of a single bicistronic mRNA comprising the M6 riboswitch regulating DsRed, and an intergenic add-A riboswitch controlling a downstream eGFP gene (FIG. 35A). […] Moreover, the maximum DsRed induction factor was 21.2, which is also more than 2-fold higher than the dual promoter system (FIG. 35B). The organisation of M6-DsRed in an operon, permits differential control, but also gives rise to significant amplification of the dynamic range of gene expression (IF), compared with the dual promoter system. […] In this case, eGFP output was clearly dependent on both ligands. […]
(§5) A number of reasons could possibly account for this. Firstly, ribosomal read-through could result in a more efficient initiation of translation at the eGFP RBS. […] Titration of the M6 selective inducer Am (0→250 μM) against the dual promoter in either the absence or presence 2AP (0 or 250 μM) gives dose-dependent protein expression curves for DsRed that are very similar, with maximum normalized red fluorescence (fu/OD620) of 1.1×10^5 and 1.0×10^5 respectively (FIG. 36A). […]

[5] = target: M6″ riboswitch aptamer; test: Isothermal titration calorimetry with M6″ aptamer; format: binding
Text: as §1

[6] = system: add A; details: earlier in vitro studies; cited from earlier work
[7] = system: add A-riboswitch; test: Dual promoter construct, eGFP expression by fluorescence; format: cell-based, Escherichia coli
Text: as §2, §3, §5

[8] = system: M6; details: earlier in vitro studies; cited from earlier work
[9] = system: intergenic add-A riboswitch; test: Operon construct, eGFP expression by fluorescence; format: cell-based, Escherichia coli
Text: In a second series of experiments, a synthetic operon was designed with one promoter driving transcription of a single bicistronic mRNA comprising the M6 riboswitch regulating DsRed, and an intergenic add-A riboswitch controlling a downstream eGFP gene (FIG. 35A). […] Moreover, the maximum DsRed induction factor was 21.2, which is also more than 2-fold higher than the dual promoter system (FIG. 35B). The organisation of M6-DsRed in an operon, permits differential control, but also gives rise to significant amplification of the dynamic range of gene expression (IF), compared with the dual promoter system. […] In this case, eGFP output was clearly dependent on both ligands. A synergistic effect of the two ligands is observed in the induction factor matrix analysis, across a full range of Am and 2AP concentrations (FIG. 35C), with the expression landscape reaching a maximum induction factor of 24.1 in the presence of the highest concentrations of both inducers. […] Similarly no cross-talk is observed with the dual promoter system described above.
as §4, with “(2010)].” for “(2010)]. Consequently the levels of full-length mRNA transcripts in the cell will be higher, than if either or both ligands are absent. Finally protection of the full-length transcript from nuclease degradation by actively translating ribosomes [Deana, Genes Dev.”

[10] = system: M6″ riboswitch
Protocol: (§6) Expression is induced using IPTG (0.5 mM) and increasing concentrations of A43 (respectively 0, 5, 10, 25, 50, 100, 250 uM) shown in the third to eighth columns.

[11] = system: addA(wt) riboswitch aptamer; test: Isothermal titration calorimetry with AddA(wt) aptamer; format: binding, Vibrio vulnificus; details: ITC, FIG. 59
Text: Improved 2nd generation ligands have been discovered both in terms of in vivo and in vitro binding affinity.

[12] = system: M6″ riboswitch; test: M6″-eGFP construct, GFP expression; format: cell-based, E. coli
Text: as §1
In contrast, the genetic construct of the invention comprises a lac promoter/operator upstream of a 2nd generation riboswitch M6″-eGFP the lac promoter/operator and riboswitch respectively providing direct control of the expression of GFP via transcriptional and translational control.
Both the comparator construct and the genetic construct of the invention were provided on high copy plasmids in Top 10F′.

[13] = system: M6″ riboswitch; test: T7 RNA polymerase expression under M6″ riboswitch control (spacer constructs); details: for regulation upon addition of IPTG: IPTG 0.5 mM
Protocol: as §6

[14] = system: lac promoter/operator; test: Control lac P/O construct, GFP expression; format: cell-based, E. coli
Text: FIGS. 52 and 53 illustrate the increased dynamic regulation of expression of a gene of interest (here exemplified by green fluorescent protein) that can be achieved using gene constructs in accordance with the present invention, as compared to comparator (control) constructs. In the control constructs GFP expression is controlled directly by a lac promoter/operator alone. In contrast, in the gene constructs of the invention GFP expression is controlled by both a lac promoter/operator, and a riboswitch. In this arrangement the lac promoter provides transcriptional control of expression, and the riboswitch provides translational control. FIGS. 52 and 53 respectively show data generated by gene constructs of the invention comprising first and second generation riboswitches (referred to respectively as “1st Generation” and “2nd Generation” constructs) when present on high copy plasmids in E. coli Top10F′. In this example, the first generation riboswitch comprises AddA (the ligand for which is adenine), and the second generation riboswitch comprises M6″ (the ligand for which is A43). […]
The induction factor represents the degree to which gene expression is controlled, and is determined from the ratio of the maximum induced protein expression over the basal protein expression level. […]

[15] = system: M6C″ riboswitch; test: M6C″-eGFP riboswitch-reporter construct, gene expression; format: cell-based, E. coli
Text: as §1

Structure (SMILES): Nc1ncnc(=O)[nH]1 [compound 3, azacytosine]
- Kd [1]: 1000 to 1200 nM
- response of riboswitch to ligand [2]: does not respond

Structure (SMILES): Nc1nc(N)[nH]c(=O)n1 [Am, ammeline]
- maximum normalized red fluorescence ([3]; absence of 2AP): 1.1×10^5 fu/OD620
- maximum normalized red fluorescence ([3]; presence of 2AP 250 μM): 1.0×10^5 fu/OD620
- maximum induction factor, DsRed ([3]; increasing Am, co-administration of 2-AP): 9.3
- maximum DsRed induction factor [4]: 21.2
- maximum output, DsRed expression ([4]; Am 0→250 μM, presence or absence of 2AP (0 or 250 μM)): 2.9×10^6 fu/OD620
- Kd ([5]; ITC, M6″ aptamer domain, read-out: Kd): 1000 to 1200 nM
- response of riboswitch to ligand [2]: does not respond
- binding interaction [6]: no binding interaction
- effect upon induction of eGFP expression ([7]; changes in Am concentration): no effect

Structure (SMILES): Nc1ncc2[nH]cnc2n1 [2AP, 2-aminopurine]
- effect upon DsRed induction ([3]; simultaneous increase in 2AP): essentially no effect
- binding interaction [8]: no binding interaction
- output, eGFP ([9]; 2AP in the presence of Am (250 μM)): 25.9×10^6 fu/OD620
- maximum induction factor, eGFP ([9]; highest concentrations of both inducers (Am and 2AP)): 24.1
- maximum output, eGFP ([9]; titration of 2AP alone): 14.8×10^6 fu/OD620
- induction factor, eGFP ([7]; increasing 2AP): 11.3
- maximum eGFP levels ([7]; unaffected by Am): ca. 55×10^6 fu/OD620

Structure (SMILES): Nc1nc(N)c2cncnc2n1 [A43, pyrimido[4,5-d]pyrimidine-2,4-diamine]
- Kd ([5]; isothermal titration calorimetry, FIG. 59, read-out: Kd): 189 nM
- dynamic range of control (max/un-induced) ([10]; 105 nt spacer, IPTG (0.5 mM) plus A43 (250 uM)): 134 fold
- induction factor above IPTG expression ([10]; sp120): up to 12 fold
- affinity [11]: no affinity
- maximum eGFP expression compared with WT ([12]; eGFP expression assay, FIG. 58): exceeds that of the WT (adddA) with adenine
- induction of gene expression ([12]; in E. coli): 12 fold
- induction of gene expression ([12]; in combination with lac promoter/operator, FIG. 53): > 400 fold
- induction factor ([12]; maximum induced over basal, IPTG plus A43): ~450
- induction of T7 RNA polymerase (blot) ([13]; A43 50, 100, 250, 1000 μM, lac I forward or reverse, FIG. 48): dose-dependent
- regulation of T7RNAP (western blot) ([13]; pTTv9, A43 2→250 uM, absence and presence of A1 (250 uM)): dose dependent regulation

Structure (SMILES): Nc1nc(N)c2nccnc2n1 [A44, 2,4-Diaminopteridine]
- Kd ([5]; ITC, FIG. 60, read-out: in vitro binding affinity): ~2000 nM

Structure (SMILES): CC(C)S[C@@H]1O[C@H](CO)[C@H](O)[C@H](O)[C@H]1O [IPTG]
- control +/−IPTG ([12]; riboswitch containing construct, column 2, no riboswitch inducer): 40 fold
- regulation upon addition of IPTG ([13]; sp105): 44 fold
- regulation upon addition of IPTG ([13]; sp120): ~1 fold
- induction factor (control +/−IPTG) [14]: 4

Structure (SMILES): Nc1ncnc2nc[nH]c12 [adenine]
- affinity ([5]; ITC, M6″ aptamer domain): no affinity
- response of riboswitch to ligand [15]: neither responds
- affinity [1]: no affinity
- response of riboswitch to ligand ([12]; M6″): neither responds
